# Oligonucleotides are given in HELM: sugar(base)linkage, 5' to 3'; d 2'-deoxyribose, r ribose, m 2'-O-methylribose, p phosphate. ss, as = sense and antisense strand
# Target: TMEM63B
# Test: reporter assay of Huesken 2005
# Settings: siRNA
# Note: test concentration or dose not given here.
row,Substance,normalised inhibition (eCFP-eYFP dual reporter) [%]
1,RNA1{r(G)p.r(U)p.r(A)p.r(U)p.r(C)p.r(U)p.r(G)p.r(C)p.r(U)p.r(G)p.r(C)p.r(U)p.r(C)p.r(A)p.r(C)p.r(C)p.r(G)p.r(U)p.r(C)p.d(T)p.d(T)}|RNA2{r(G)p.r(A)p.r(C)p.r(G)p.r(G)p.r(U)p.r(G)p.r(A)p.r(G)p.r(C)p.r(A)p.r(G)p.r(C)p.r(A)p.r(G)p.r(A)p.r(U)p.r(A)p.r(C)p.d(A)p.d(G)}$$$RNA1{StrandType:ss}|RNA2{StrandType:as}$,65.4
2,RNA1{r(G)p.r(U)p.r(C)p.r(C)p.r(C)p.r(C)p.r(A)p.r(A)p.r(A)p.r(U)p.r(C)p.r(U)p.r(G)p.r(C)p.r(G)p.r(A)p.r(A)p.r(A)p.r(U)p.d(T)p.d(T)}|RNA2{r(A)p.r(U)p.r(U)p.r(U)p.r(C)p.r(G)p.r(C)p.r(A)p.r(G)p.r(A)p.r(U)p.r(U)p.r(U)p.r(G)p.r(G)p.r(G)p.r(G)p.r(A)p.r(C)p.d(A)p.d(G)}$$$RNA1{StrandType:ss}|RNA2{StrandType:as}$,82
3,RNA1{r(G)p.r(U)p.r(C)p.r(C)p.r(U)p.r(U)p.r(U)p.r(C)p.r(A)p.r(G)p.r(C)p.r(G)p.r(G)p.r(C)p.r(A)p.r(C)p.r(A)p.r(U)p.r(C)p.d(T)p.d(T)}|RNA2{r(G)p.r(A)p.r(U)p.r(G)p.r(U)p.r(G)p.r(C)p.r(C)p.r(G)p.r(C)p.r(U)p.r(G)p.r(A)p.r(A)p.r(A)p.r(G)p.r(G)p.r(A)p.r(C)p.d(A)p.d(G)}$$$RNA1{StrandType:ss}|RNA2{StrandType:as}$,65.1
4,RNA1{r(G)p.r(U)p.r(C)p.r(U)p.r(C)p.r(A)p.r(C)p.r(C)p.r(U)p.r(C)p.r(U)p.r(G)p.r(U)p.r(C)p.r(U)p.r(C)p.r(C)p.r(A)p.r(G)p.d(T)p.d(T)}|RNA2{r(C)p.r(U)p.r(G)p.r(G)p.r(A)p.r(G)p.r(A)p.r(C)p.r(A)p.r(G)p.r(A)p.r(G)p.r(G)p.r(U)p.r(G)p.r(A)p.r(G)p.r(A)p.r(C)p.d(G)p.d(C)}$$$RNA1{StrandType:ss}|RNA2{StrandType:as}$,88.6
5,RNA1{r(G)p.r(U)p.r(C)p.r(U)p.r(C)p.r(C)p.r(A)p.r(G)p.r(C)p.r(U)p.r(C)p.r(C)p.r(G)p.r(U)p.r(U)p.r(G)p.r(A)p.r(C)p.r(U)p.d(T)p.d(T)}|RNA2{r(A)p.r(G)p.r(U)p.r(C)p.r(A)p.r(A)p.r(C)p.r(G)p.r(G)p.r(A)p.r(G)p.r(C)p.r(U)p.r(G)p.r(G)p.r(A)p.r(G)p.r(A)p.r(C)p.d(A)p.d(G)}$$$RNA1{StrandType:ss}|RNA2{StrandType:as}$,69.5
6,RNA1{r(G)p.r(U)p.r(G)p.r(A)p.r(A)p.r(U)p.r(G)p.r(A)p.r(G)p.r(A)p.r(A)p.r(G)p.r(C)p.r(C)p.r(U)p.r(C)p.r(U)p.r(U)p.r(G)p.d(T)p.d(T)}|RNA2{r(C)p.r(A)p.r(A)p.r(G)p.r(A)p.r(G)p.r(G)p.r(C)p.r(U)p.r(U)p.r(C)p.r(U)p.r(C)p.r(A)p.r(U)p.r(U)p.r(C)p.r(A)p.r(C)p.d(C)p.d(T)}$$$RNA1{StrandType:ss}|RNA2{StrandType:as}$,69.3
7,RNA1{r(G)p.r(U)p.r(G)p.r(G)p.r(U)p.r(G)p.r(G)p.r(C)p.r(C)p.r(G)p.r(C)p.r(G)p.r(C)p.r(C)p.r(C)p.r(A)p.r(U)p.r(C)p.r(C)p.d(T)p.d(T)}|RNA2{r(G)p.r(G)p.r(A)p.r(U)p.r(G)p.r(G)p.r(G)p.r(C)p.r(G)p.r(C)p.r(G)p.r(G)p.r(C)p.r(C)p.r(A)p.r(C)p.r(C)p.r(A)p.r(C)p.d(C)p.d(T)}$$$RNA1{StrandType:ss}|RNA2{StrandType:as}$,46.3
8,RNA1{r(G)p.r(U)p.r(G)p.r(G)p.r(U)p.r(U)p.r(G)p.r(U)p.r(G)p.r(G)p.r(G)p.r(C)p.r(G)p.r(U)p.r(C)p.r(C)p.r(U)p.r(C)p.r(U)p.d(T)p.d(T)}|RNA2{r(A)p.r(G)p.r(A)p.r(G)p.r(G)p.r(A)p.r(C)p.r(G)p.r(C)p.r(C)p.r(C)p.r(A)p.r(C)p.r(A)p.r(A)p.r(C)p.r(C)p.r(A)p.r(C)p.d(C)p.d(A)}$$$RNA1{StrandType:ss}|RNA2{StrandType:as}$,53.5
9,RNA1{r(U)p.r(A)p.r(A)p.r(A)p.r(G)p.r(G)p.r(A)p.r(U)p.r(G)p.r(A)p.r(U)p.r(G)p.r(A)p.r(G)p.r(A)p.r(U)p.r(C)p.r(C)p.r(G)p.d(T)p.d(T)}|RNA2{r(C)p.r(G)p.r(G)p.r(A)p.r(U)p.r(C)p.r(U)p.r(C)p.r(A)p.r(U)p.r(C)p.r(A)p.r(U)p.r(C)p.r(C)p.r(U)p.r(U)p.r(U)p.r(A)p.d(T)p.d(C)}$$$RNA1{StrandType:ss}|RNA2{StrandType:as}$,24.7
10,RNA1{r(U)p.r(A)p.r(C)p.r(C)p.r(U)p.r(C)p.r(A)p.r(G)p.r(U)p.r(G)p.r(C)p.r(C)p.r(C)p.r(A)p.r(C)p.r(A)p.r(A)p.r(C)p.r(U)p.d(T)p.d(T)}|RNA2{r(A)p.r(G)p.r(U)p.r(U)p.r(G)p.r(U)p.r(G)p.r(G)p.r(G)p.r(C)p.r(A)p.r(C)p.r(U)p.r(G)p.r(A)p.r(G)p.r(G)p.r(U)p.r(A)p.d(T)p.d(T)}$$$RNA1{StrandType:ss}|RNA2{StrandType:as}$,51.3
11,RNA1{r(U)p.r(C)p.r(A)p.r(C)p.r(C)p.r(A)p.r(C)p.r(C)p.r(A)p.r(U)p.r(G)p.r(G)p.r(A)p.r(C)p.r(A)p.r(A)p.r(G)p.r(U)p.r(U)p.d(T)p.d(T)}|RNA2{r(A)p.r(A)p.r(C)p.r(U)p.r(U)p.r(G)p.r(U)p.r(C)p.r(C)p.r(A)p.r(U)p.r(G)p.r(G)p.r(U)p.r(G)p.r(G)p.r(U)p.r(G)p.r(A)p.d(T)p.d(G)}$$$RNA1{StrandType:ss}|RNA2{StrandType:as}$,67.7
12,RNA1{r(U)p.r(C)p.r(A)p.r(C)p.r(C)p.r(U)p.r(G)p.r(C)p.r(C)p.r(C)p.r(C)p.r(A)p.r(U)p.r(C)p.r(A)p.r(U)p.r(C)p.r(G)p.r(U)p.d(T)p.d(T)}|RNA2{r(A)p.r(C)p.r(G)p.r(A)p.r(U)p.r(G)p.r(A)p.r(U)p.r(G)p.r(G)p.r(G)p.r(G)p.r(C)p.r(A)p.r(G)p.r(G)p.r(U)p.r(G)p.r(A)p.d(T)p.d(A)}$$$RNA1{StrandType:ss}|RNA2{StrandType:as}$,73
13,RNA1{r(U)p.r(C)p.r(A)p.r(G)p.r(A)p.r(G)p.r(G)p.r(U)p.r(G)p.r(G)p.r(A)p.r(C)p.r(G)p.r(G)p.r(G)p.r(G)p.r(A)p.r(U)p.r(G)p.d(T)p.d(T)}|RNA2{r(C)p.r(A)p.r(U)p.r(C)p.r(C)p.r(C)p.r(C)p.r(G)p.r(U)p.r(C)p.r(C)p.r(A)p.r(C)p.r(C)p.r(U)p.r(C)p.r(U)p.r(G)p.r(A)p.d(G)p.d(T)}$$$RNA1{StrandType:ss}|RNA2{StrandType:as}$,29.5
14,RNA1{r(U)p.r(C)p.r(A)p.r(U)p.r(C)p.r(A)p.r(U)p.r(C)p.r(A)p.r(C)p.r(C)p.r(A)p.r(C)p.r(C)p.r(A)p.r(U)p.r(G)p.r(G)p.r(A)p.d(T)p.d(T)}|RNA2{r(U)p.r(C)p.r(C)p.r(A)p.r(U)p.r(G)p.r(G)p.r(U)p.r(G)p.r(G)p.r(U)p.r(G)p.r(A)p.r(U)p.r(G)p.r(A)p.r(U)p.r(G)p.r(A)p.d(T)p.d(G)}$$$RNA1{StrandType:ss}|RNA2{StrandType:as}$,79.2
15,RNA1{r(U)p.r(C)p.r(A)p.r(U)p.r(G)p.r(A)p.r(C)p.r(C)p.r(U)p.r(A)p.r(C)p.r(A)p.r(G)p.r(U)p.r(A)p.r(U)p.r(C)p.r(A)p.r(C)p.d(T)p.d(T)}|RNA2{r(G)p.r(U)p.r(G)p.r(A)p.r(U)p.r(A)p.r(C)p.r(U)p.r(G)p.r(U)p.r(A)p.r(G)p.r(G)p.r(U)p.r(C)p.r(A)p.r(U)p.r(G)p.r(A)p.d(C)p.d(C)}$$$RNA1{StrandType:ss}|RNA2{StrandType:as}$,60.2
16,RNA1{r(U)p.r(C)p.r(C)p.r(A)p.r(U)p.r(C)p.r(C)p.r(G)p.r(A)p.r(G)p.r(G)p.r(C)p.r(U)p.r(U)p.r(C)p.r(A)p.r(U)p.r(C)p.r(U)p.d(T)p.d(T)}|RNA2{r(A)p.r(G)p.r(A)p.r(U)p.r(G)p.r(A)p.r(A)p.r(G)p.r(C)p.r(C)p.r(U)p.r(C)p.r(G)p.r(G)p.r(A)p.r(U)p.r(G)p.r(G)p.r(A)p.d(G)p.d(A)}$$$RNA1{StrandType:ss}|RNA2{StrandType:as}$,65.3
17,RNA1{r(U)p.r(C)p.r(C)p.r(G)p.r(A)p.r(G)p.r(G)p.r(C)p.r(U)p.r(U)p.r(C)p.r(A)p.r(U)p.r(C)p.r(U)p.r(G)p.r(G)p.r(U)p.r(G)p.d(T)p.d(T)}|RNA2{r(C)p.r(A)p.r(C)p.r(C)p.r(A)p.r(G)p.r(A)p.r(U)p.r(G)p.r(A)p.r(A)p.r(G)p.r(C)p.r(C)p.r(U)p.r(C)p.r(G)p.r(G)p.r(A)p.d(T)p.d(G)}$$$RNA1{StrandType:ss}|RNA2{StrandType:as}$,29.2
18,RNA1{r(U)p.r(C)p.r(C)p.r(U)p.r(A)p.r(G)p.r(C)p.r(U)p.r(C)p.r(C)p.r(C)p.r(A)p.r(C)p.r(G)p.r(U)p.r(C)p.r(U)p.r(A)p.r(U)p.d(T)p.d(T)}|RNA2{r(A)p.r(U)p.r(A)p.r(G)p.r(A)p.r(C)p.r(G)p.r(U)p.r(G)p.r(G)p.r(G)p.r(A)p.r(G)p.r(C)p.r(U)p.r(A)p.r(G)p.r(G)p.r(A)p.d(A)p.d(C)}$$$RNA1{StrandType:ss}|RNA2{StrandType:as}$,79.7
19,RNA1{r(U)p.r(C)p.r(C)p.r(U)p.r(G)p.r(G)p.r(G)p.r(A)p.r(G)p.r(C)p.r(U)p.r(C)p.r(A)p.r(G)p.r(G)p.r(G)p.r(G)p.r(A)p.r(U)p.d(T)p.d(T)}|RNA2{r(A)p.r(U)p.r(C)p.r(C)p.r(C)p.r(C)p.r(U)p.r(G)p.r(A)p.r(G)p.r(C)p.r(U)p.r(C)p.r(C)p.r(C)p.r(A)p.r(G)p.r(G)p.r(A)p.d(G)p.d(C)}$$$RNA1{StrandType:ss}|RNA2{StrandType:as}$,52
20,RNA1{r(U)p.r(C)p.r(G)p.r(C)p.r(C)p.r(U)p.r(A)p.r(A)p.r(U)p.r(G)p.r(U)p.r(U)p.r(C)p.r(C)p.r(U)p.r(C)p.r(G)p.r(A)p.r(U)p.d(T)p.d(T)}|RNA2{r(A)p.r(U)p.r(C)p.r(G)p.r(A)p.r(G)p.r(G)p.r(A)p.r(A)p.r(C)p.r(A)p.r(U)p.r(U)p.r(A)p.r(G)p.r(G)p.r(C)p.r(G)p.r(A)p.d(G)p.d(C)}$$$RNA1{StrandType:ss}|RNA2{StrandType:as}$,77.9

# Reference: the OligoGym collection
